The first experiment concerns the target T1, CRP (Homo sapiens, UniProt P02741).
T1 sequence (P02741 19-224): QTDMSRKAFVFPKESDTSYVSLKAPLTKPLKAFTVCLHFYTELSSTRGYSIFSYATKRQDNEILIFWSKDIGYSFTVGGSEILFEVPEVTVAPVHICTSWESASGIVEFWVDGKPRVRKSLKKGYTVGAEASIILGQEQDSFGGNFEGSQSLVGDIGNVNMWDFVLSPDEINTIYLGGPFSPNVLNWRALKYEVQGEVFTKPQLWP
Description: MIRA immunoturbidimetric assay (inhibition of CRP recognition, COBAS MIRA autoanalyser). The experiment is classed as binding. Further details: The final concentrations were 0.73 μM native pentameric CRP; from tissue. The following applies: 0.73 μM native pentameric CRP, TC buffer, 1 h at room temperature; read-out: IC50. The text has this: The CRP immunoturbidimetric assay on the Roche COBAS MIRA Plus autoanalyser, utilises two different sized latex particles that are covalently coupled with two different monoclonal antibodies with specificity for different CRP epitopes (5). The assay was validated by Roche for measurement of native pentameric CRP, for which it has high sensitivity and specificity and a high upper detection limit; it was calibrated against a standard produced in our laboratory. Serendipitously, one of the assay's antibodies binds to an epitope present on the ligand binding B face of CRP. Thus, when the binding pocket is occupied by ligand or is occluded, for example by B face to B face complexing of pentamers, the assay fails to detect CRP although it is demonstrable by other types of assays that employ antibodies which bind to different epitopes. Bivalent compounds such as BPC8 and APL-2191 were designed to crosslink pairs of CRP pentamers. Therefore, inhibition of CRP recognition in the MIRA assay is a convenient tool to monitor the efficacy and potency of complex formation between such ligands and CRP (6).
CRP concentrations were measured in the presence and absence of ligands by the COBAS MIRA autoanalyser. Concentrated Tris-calcium buffer (×10 TC) was prepared in MilliQ water from trishydroxymethyamine (100 mM), calcium chloride (20 mM) and sodium chloride (1.4 M). The pH was adjusted to 8.0 using HCl and sodium azide was added (0.1% w/v); the buffer was stored at 4° C. A tenfold diluted working buffer (TC) was prepared by dilution 100 ml of the ×10 concentrated buffer with 900 ml of MilliQ water. Human CRP was isolated, purified and characterised as previously reported (6-9) and stored frozen at −80° C. When required, stock CRP was thawed at 37° C. and working dilutions prepared that were kept at 4° C. for the duration of an experiment. CRP concentration was determined spectrophotometrically (Beckman Coulter DU 650) in quartz cuvettes with a 1 cm light path, by measuring […] after correction for absorbance at 320 nm (light scattering) and using the measured absorption coefficient A (1%, 1 cm)=17.5 for human CRP (10). Human CRP at ˜90 μg/ml (0.78 μM of pentamer) in TC buffer was prepared from a stock solution; a 75 μl aliquot was used in the assay. Compounds were supplied by Wuxi AppTec (Wuhan, China) as solids. They were dissolved in TC buffer at suitable concentrations, depending on solubility, of up to 10 mM (labelled S1). They were then serially diluted 1:2 with TC buffer (100 μl ligand+200 μl TC) to provide up to 9 dilutions, S2-S10. A TC buffer control (50) was included in each assay. A 15 μl volume of each ligand solution was incubated with 75 μl of CRP for 1 h at room temperature. The final concentrations were 0.73 μM native pentameric CRP, ligands S1-S10=625-0.03 μM, corresponding to ligand:CRPr ratios of 850-0.04. Where compounds were of reduced solubility in TC buffer, lower stock concentrations were used (from 0.6 mM), corresponding to final top assay concentrations of 100 μM.
Data are expressed as measured CRP (mg/L) against final total ligand concentration (μM) and were plotted using Sigmaplot (V14) using the 4 parameter logistic curve y=min+(max−min)/(1+(x/EC50)[…]) to calculate EC50. Where appropriate, samples were also measured in whole normal human serum following the addition of a known amount of human CRP. All compounds were assayed in comparison with a highly purified preparation of bis(phosphocholine)octane (BPC8), that was prepared by Carbogen AMCIS AG and diluted into sterile water at 10 mM concentration. It was stored at −80° C. The solution was diluted into TC buffer as required.
In general, IC50 refers to the midpoint of a concentration-inhibition curve. As for `O=C(N[C@@H](C(=O)O)C1CN2CCC1CC2)c1ccc(C(=O)N[C@@H](C(=O)O)C2CN3CCC2CC3)cc1` (stereo partly drawn) [Example 1, (R,2R,2′R)-2,2′-(terephthaloylbis(azanediyl))bis(2-((R)-quinuclidin-3-yl)acetic acid)], the IC50 turned out to be 0.6 µM. Consider `O=C(N[C@@H](C(=O)O)[C@H]1CN2CCC1CC2)c1ccc(C(=O)N[C@@H](C(=O)O)[C@H]2CN3CCC2CC3)nc1` [Example 2, (R,2R,2′R)-2,2′-((pyridine-2,5-dicarbonyl)bis(azanediyl))bis(2-((R)-quinuclidinyl)acetic acid)], for which the IC50 was found to be 0.65 µM. Turning to `O=C(N[C@@H](C(=O)O)[C@H]1CN2CCC1CC2)c1cnc(C(=O)N[C@@H](C(=O)O)[C@H]2CN3CCC2CC3)cn1` [Example 3, (R,2R,2′R)-2,2′-((pyrazine-2,5-dicarbonyl)bis(azanediyl))bis(2-((R)-quinuclidinyl)acetic acid)], the IC50 stood at 1.22 µM. On to `O=C(N[C@@H](C(=O)O)[C@H]1CN2CCC1CC2)c1ccc(C(=O)N[C@@H](C(=O)O)[C@H]2CN3CCC2CC3)nn1` [Example 4, (R,2R,2′R)-2,2′-((pyridazine-3,6-dicarbonyl)bis(azanediyl))bis(2-((R)-quinuclidin-3-yl)acetic acid)], for which the half-maximal inhibitory concentration (IC50) was determined as 0.58 µM. Same read-out and setting: to `O=C(N[C@@H](C(=O)O)[C@H]1CN2CCC1CC2)c1ccc(-c2ccc(C(=O)N[C@@H](C(=O)O)[C@H]3CN4CCC3CC4)cc2)cc1` [Example 5, (R)-2-(4′-(((R)-carboxy((R)-quinuclidin-3-yl)methyl)carbamoyl)-[1,1′-biphenyl]-4-ylcarboxamido)-2-((R)-quinuclidin-3-yl)acetic acid] belongs 0.73 µM; to `Cc1cc(C(=O)N[C@@H](C(=O)O)[C@H]2CN3CCC2CC3)ccc1-c1ccc(C(=O)N[C@@H](C(=O)O)[C@H]2CN3CCC2CC3)cc1` [Example 6, (R)-2-(4′-(((R)-carboxy((R)-quinuclidin-3-yl)methyl)carbamoyl)-2′-methyl-[1,1′-biphenyl]-4-ylcarboxamido)-2-((R)-quinuclidin-3-yl)acetic acid], 0.56 µM; to `O=C(N[C@@H](C(=O)O)[C@H]1CN2CCC1CC2)c1ccc2cc(C(=O)N[C@@H](C(=O)O)[C@H]3CN4CCC3CC4)ccc2c1` [Example 7, (R,2R,2′R)-2,2′-((naphthalene-2,6-dicarbonyl)bis(azanediyl))bis(2-((R)-quinuclidin-3-yl)acetic acid)], 0.51 µM. In the case of `Cc1cc(C(=O)N[C@@H](C(=O)O)[C@H]2CN3CCC2CC3)c(C)cc1C(=O)N[C@@H](C(=O)O)[C@H]1CN2CCC1CC2` [Example 8], the IC50 was 0.59 µM.

For `Cc1cc(C(=O)N[C@@H](C(=O)O)[C@H]2CN3CCC2CC3)ccc1C(=O)N[C@@H](C(=O)O)[C@H]1CN2CCC1CC2` [Example 9], the 50% inhibitory concentration (IC50) stood at 0.55 µM. The same measure, in the same setting: to `O=C(N[C@@H](C(=O)O)[C@H]1CN2CCC1CC2)c1cc(OCc2ccccc2)c(C(=O)N[C@@H](C(=O)O)[C@H]2CN3CCC2CC3)cc1OCc1ccccc1` [Example 10] belongs 0.67 µM; to `O=C(N[C@@H](C(=O)O)[C@H]1CN2CCC1CC2)c1cccc(C(=O)N[C@@H](C(=O)O)[C@H]2CN3CCC2CC3)c1` [Example 11, 2-[[3-[[carboxy-1(3R)-quinuclidin-3-yl]methyl]carbamoyl]benzoylamino]-2-[(3R)-quinuclidin-3-yl]acetic acid], 2.02 µM.

In the case of `C[N+](C)(C)CCOP(=O)(O)OCCCCCCCCOP(=O)(O)OCC[N+](C)(C)C` [Example 12, bis(phosphocholine)octane], the IC50 turned out to be 1.2 µM.

Staying with this experiment, now noted: alternative stereoisomers of the formula (I) structure; read-out: IC50 of alternative stereoisomers (QA,QA: Quinuclidine, Amino Acid).
As to `O=C(NC(C(=O)O)C1CN2CCC1CC2)c1ccc(C(=O)NC(C(=O)O)C2CN3CCC2CC3)cc1` (single isomer, unassigned) [RS,RR], the half-maximal inhibitory concentration (IC50) was greater than 1000 µM. With `O=C(NC(C(=O)O)C1CN2CCC1CC2)c1ccc(C(=O)NC(C(=O)O)C2CN3CCC2CC3)cc1` (single isomer, unassigned) [RS,RS], the half-inhibitory concentration (IC50) was greater than 1000 µM. For `O=C(NC(C(=O)O)C1CN2CCC1CC2)c1ccc(C(=O)NC(C(=O)O)C2CN3CCC2CC3)cc1` (single isomer, unassigned) [SR,SR], the IC50 was greater than 1000 µM. Still for that read-out and setting: to `O=C(NC(C(=O)O)C1CN2CCC1CC2)c1ccc(C(=O)NC(C(=O)O)C2CN3CCC2CC3)cc1` (single isomer, unassigned) [SS,SS] belongs 34.4 µM.

For the next experiment, the target named is T1, CRP. Description: rat acute myocardial infarction model (coronary artery ligation) with administered human CRP. In kind it is in vivo. The following applies: ischaemia reperfusion design and terminal coronary artery ligation, Pepys, unpublished observations. The text has this:
Human CRP and activated rat complement were deposited in and around the infarct and the exacerbation of tissue damage was absolutely complement dependent. Similar observations were made in the middle cerebral artery occlusion model of stroke in rats (3).
The design of the first small molecule inhibitor of CRP binding for use in vivo, bis(phosphocholine)hexane (BPC6), enabled conclusive confirmation of the pathogenic role of human CRP in exacerbating tissue damage after ischaemic infarction (2).
BPC6 and BPC8 are avidly bound by CRP, cross linking pairs of the native pentameric protein molecules. […] However, the bis(phosphocholine)alkane series of compounds were difficult to synthesise and purify at scale.
For the molecule `C[N+](C)(C)CCOP(=O)(O)OCCCCCCCCOP(=O)(O)OCC[N+](C)(C)C` [Example 12, bis(phosphocholine)octane], the “protective effect against human CRP pathogenicity” value is “same protective effect”.

In a further experiment the target is T1, CRP.
Experiment: not given
The following applies: rats undergoing coronary artery ligation and receiving human CRP; cited from earlier work.
On to `C[N+](C)(C)CCOP(=O)([O-])OCCCCCCOP(=O)([O-])OCC[N+](C)(C)C` [BPC6, bis(phosphocholine)hexane], for which the “increased damage caused by human CRP after coronary artery ligation” value is “completely abrogated the increased damage”.

The target of a further experiment is T1, CRP. As to the kind of experiment: inhibition of CRP binding in vitro. The following applies: Pepys, unpublished observations.
Regarding `C[N+](C)(C)CCOP(=O)(O)OCCCCCCCCOP(=O)(O)OCC[N+](C)(C)C` [Example 12, bis(phosphocholine)octane], the “potency as inhibitor of CRP binding in vitro, compared with BPC6” value is on record as “more potent inhibitor of CRP binding in vitro”.
